# Tested on: SNU-C5/WT
# Conditions: mouse, in vivo
compound,measurement,value
"O=c1[nH]cc(F)c(=O)[nH]1 [5FU, 5-fluorouracil]",cell proliferation of tumor cells (Ki67 fluorescence staining),not able to decrease the proliferative ability of tumor cells
same,tumor formation (tumor volume),does not effectively inhibit tumor formation
